Patent US20030039689A1, “Polymer-based, sustained release drug delivery system” (priority 2001, published 2003)

What was measured:
[1] = Release test from PVA coated glass plates into phosphate buffer, HPLC; type: physicochemical; settings: 0.1 M phosphate buffer pH 7.4, 37° C., intact compound plus constituents
[2] = Release test from silicone coated glass plates into phosphate buffer, HPLC
[3] = Effect of gamma irradiation and plasma treatment on drug release from coated stents; type: physicochemical; settings: stents with or without plasma treatment and gamma-irradiation; 0.1 M phosphate buffer pH 7.4
Procedure: FIGS. 11A and 11B are graphs showing the effect of gamma irradiation and plasma treatment on drug release. […] Samples were taken periodically and the entire release media was replaced after each sample. The amount of each drug released into the media was determined by HPLC.

[4] = Release test from Chronoflex polymer/TC-32 coated HPLC inserts into phosphate buffer; type: physicochemical
Procedure: A mixture of 3.3 gm Chronoflex C(65D) (Lot# CTB-G25B-1234) dispersion containing 0.3 gm of Chronoflex C(65D) and 2.2 gm Chronoflex C(55D) (Lot# CTB-121B-1265) dispersion containing 0.2 gm of Chronoflex C (55D), both in dimethyl acetamide (DMAC) (1:10, w/w) was prepared by mixing the two dispersions together. To this mixture, 6.0 gm of tetrahydrofurane (HPLC grade) were added and mixed. The final mixture was not a clear solution. Then 101.5 mg of a co-drug of 5-fluorouracil (5FU) and triamcinolone acetonide (TA) (the co-drug being defmed as “TC-32”) was added and dissolved into the polymer solution.
Ten (10) HPLC inserts were then coated with the polymer/TC-32 solution by dipping, which was then followed by air-drying under ambient temperature. The coating and air-drying process was repeated four (4) times (5 times total) until a total of about 10 mg of polymer/TC-32 was applied to each insert. The inserts were then placed in an oven at 80° C. for two hour to remove the residue of the solvent.

[5] = Release test from Chronoflex polymer/TC-32 dip-coated stents into phosphate buffer; type: physicochemical; settings: phosphate buffer pH 7.4, 37° C., HPLC
Procedure: To 5.0 gm of stirred dimethyl acetamide (DMAC), 300 mg of Chronoflex C(65D) (Lot# CTB-G25B-1234) and 200 mg of Chronoflex C(55D) (Lot# CTB-121B-1265) were added. The polymer was slowly dissolved in DMAC (about 4 hours). Then 5.0 gm of THF was added to the polymer dispersion. The mixture was not a clear solution. Then 100.9 mg of TC-32 was added and dissolved in the mixture.
Three (3) Stents, supplied by Guidant Corp, were coated then with the polymer/TC-32 solution by dipping and followed by air-drying under ambient temperature. The coating and air-drying process was repeated a few times till a total of about 2.0 mg of polymer/TC-32 were applied to each stent. The coated stents were air-dried under ambient temperature in a biological safety cabinet over night. The stents were then vacuum dried at 80° C. for two hour to remove the residue of the solvent. […] Samples were taken daily, and the entire media was replaced with a fresh one at each sampling time.

[6] = Release from TC-32 coated stents, non-implanted and explanted from swine, into phosphate buffer; type: physicochemical, common swine; settings: stents harvested on study day 5 from swine LAD and non-implanted stents; 0.1 M phosphate buffer
Procedure: Polyurethane (1.008 gm) was added to 50.0 gm of tetrahydrofuran (THF). The mixture was stirred overnight to dissolve the polymer. 5.0 gm of the polymer solution was diluted with 10.0 gm of THF. 150.2 mg of a co-drug of 5-fluorouracil (5FU) and triamcinolone acetonide (TA) (the co-drug being defined as “TC-32”) was added to the polymer solution and dissolved. The coating solution was prepared with 60% codrug loading. A 13% codrug loaded coating solution was also prepared. Bare stents (Tetra, Guidant, Lot# 1092154, 13 mm Tetra) were washed with isopropanol, air-dried, and spray coated with the coating solution using a precision airbrush. The coating was repeated until approximately 1.0 mg of total coating had been applied to each stent. The coated stents were vacuum dried for two hours at 50° C. to remove solvent residue, then subjected to plasma treatment and gamma-irradiation.
Co-drug coated stents were test in two groups. […] Samples were taken periodically and the concentration of co-drug in the buffer was tested by HPLC. The entire release media was replaced after each sample.
Group Two stents were placed in vivo. Three common swine had TC-32 coated stents implanted into the left anterior descending (LAD) coronary artery on study day 1. […] The amount of each drug released into the media was determined by HPLC.

release rate (slope of total cumulative release curve) [1] [µg/day]	release rate (slope of total cumulative release curve) ([2]; silicone coated glass plates, 0.1 M phosphate buffer pH 7.4, 37° C., intact compound plus constituents) [µg/day]	naproxen detected in release media ([2]; silicone coated glass plates, up to day 6, phosphate buffer pH 7.4, 37° C.) [mg]	TC-112 detected in buffer ([2]; silicone coating, up to day 6) [mg]	TC-112 hydrolyzed (calculated from naproxen detected) ([2]; silicone coating, up to day 6) [mg]	total TC-112 released (detected plus hydrolyzed) ([2]; silicone coating, up to day 6) [mg]	SMILES	intact codrug in release media [3]	half-life in buffer ([4]; 0.1 m phosphate buffer, pH 7.4, 37° C.)	intact codrug in the release media ([4]; coated HPLC inserts, phosphate buffer pH 7.4, 37° C., HPLC)	intact codrug in the release media [5]	intact codrug in release media [6]
10	13.3	43.9	51.4	71.0	122.4	COc1ccc2cc(C(C)C(=O)OCn3cc(F)c(=O)[nH]c3=O)ccc2c1 (centres unmarked) [TC-112]					
						CC1(C)O[C@@H]2CC3C4CCC5=CC(=O)C=CC5(C)[C@@]4(F)[C@@H](O)CC3(C)[C@]2(C(=O)COC(=O)OCn2cc(F)c(=O)[nH]c2=O)O1 (some centres unmarked) [TC-32]	not detectable	short	no TC-32 was detectable	No TC-32 was detectable	not detectable
